Laboratory results taken from patent US7223865B2, “Chromogenic compounds, and use thereof as enzyme substrates” (Biomerieux, priority 2003, dated 2007).

Columns and labels:
Type in all cases: cell-based
[1] = system: Enterococcus faecalis (NCTC 12697); experiment: L-alanine-aminopeptidase activity on gelled medium, Example 8; set-up: key to growth: ++ means good growth; + means moderate growth; +/− means poor growth; NG means no growth
Method: (§1) A gelled medium comprising these three substrates is prepared as follows: 30 mg of each substrate are dissolved (heating) in 10 ml of sterile distilled water. Ten ml of this solution are then added to 90 ml of Columbia agar kept molten at 50° C.
(§2) Various strains of microorganisms derived from the NCTC collection (National Collection of Type Cultures, Colindale, UK) were seeded onto the media thus obtained according to multipoint inoculation: for each strain, a drop of 10 μl of a suspension at 0.5 McFarland is deposited onto each of the culture media.
(§3) The colonies formed were examined visually after incubation for 24 h and 48 h. The color and the growth of these colonies were noted.

[2] = system: Listeria monocytogenes (NCTC 11994); experiment: as above; set-up: key to growth: ++ means good growth; + means moderate growth; +/− means poor growth; NG means no growth
Method: as §1, §2, §3

[3] = system: Staphylococcus aureus (NCTC 11939); experiment: as above; set-up: key to growth: ++ means good growth; + means moderate growth; +/− means poor growth; NG means no growth
Method: as §1, §2, §3

[4] = system: Staphylococcus aureus (NCTC 6571); experiment: as above; set-up: key to growth: ++ means good growth; + means moderate growth; +/− means poor growth; NG means no growth
Method: as §1, §2, §3

[5] = system: Pseudomonas aeruginosa (NCTC 10662); experiment: as above; set-up: key to growth: ++ means good growth; + means moderate growth; +/− means poor growth; NG means no growth
Method: as §1, §2, §3

[6] = system: Enterobacter cloacae (NCTC 11936); experiment: as above; set-up: key to growth: ++ means good growth; + means moderate growth; +/− means poor growth; NG means no growth
Method: as §1, §2, §3

[7] = system: Enterococcus faecium (NCTC 7171); experiment: as above; set-up: key to growth: ++ means good growth; + means moderate growth; +/− means poor growth; NG means no growth
Method: as §1, §2, §3

[8] = system: Klebsiella pneumoniae (NCTC 10896); experiment: as above; set-up: key to growth: ++ means good growth; + means moderate growth; +/− means poor growth; NG means no growth
Method: as §1, §2, §3

[9] = system: E. coli O157 (NCTC 12079); experiment: as above; set-up: key to growth: ++ means good growth; + means moderate growth; +/− means poor growth; NG means no growth
Method: as §1, §2, §3

[10] = system: Salmonella poona (NCTC 4840); experiment: as above; set-up: key to growth: ++ means good growth; + means moderate growth; +/− means poor growth; NG means no growth
Method: as §1, §2, §3

[11] = system: Serratia marcescens (NCTC 10211); experiment: as above; set-up: key to growth: ++ means good growth; + means moderate growth; +/− means poor growth; NG means no growth
Method: as §1, §2, §3

[12] = system: Shigella sonnei (NCTC 9774); experiment: as above; set-up: key to growth: ++ means good growth; + means moderate growth; +/− means poor growth; NG means no growth
Method: as §1, §2, §3

[13] = system: Burkholderia cepacia (NCTC 10743); experiment: as above; set-up: key to growth: ++ means good growth; + means moderate growth; +/− means poor growth; NG means no growth
Method: as §1, §2, §3

[14] = system: Enterococcus faecalis (NCTC 755); experiment: as above; set-up: key to growth: ++ means good growth; + means moderate growth; +/− means poor growth; NG means no growth
Method: as §1, §2, §3

[15] = system: Salmonella typhimurium (NCTC 74); experiment: as above; set-up: key to growth: ++ means good growth; + means moderate growth; +/− means poor growth; NG means no growth
Method: as §1, §2, §3

[16] = system: Listeria innocua (036); experiment: L-alanine-aminopeptidase activity on gelled medium, Example 3; conditions: 0.3 g/l
Method: (§4) A gelled medium comprising 300 mg/l of L-Ala-4-AP-10-MA is prepared as follows: 46.37 g of Columbia agar are added to 1 liter of distilled water and then autoclaved, and the substrate is then introduced by means of a stock solution in DMSO. Microorganisms derived from the applicant's collection were seeded onto the medium, by delimitation as three dials, using a suspension at 0.5 McFarland. The dishes were incubated at 37° C. for 48 hours. The colonies formed were examined visually after incubation for 24 and 48 hours. The color of these colonies and also the intensity of this color were noted.

[17] = system: Citrobacter koseri (090); experiment: as above; conditions: 0.3 g/l
Method: as §4

[18] = system: Proteus mirabilis (103); experiment: as above; conditions: 0.3 g/l
Method: as §4

[19] = system: Candida albicans (056); experiment: as above; conditions: 0.3 g/l
Method: as §4

[20] = system: Staphylococcus aureus (070); experiment: as above; conditions: 0.3 g/l
Method: as §4

[21] = system: Enterococcus faecalis (075); experiment: as above; conditions: 0.3 g/l
Method: as §4

[22] = system: Escherichia coli (032); experiment: as above; conditions: 0.3 g/l
Method: as §4

[23] = system: Streptococcus pyogenes (067); experiment: as above; conditions: 0.3 g/l
Method: as §4

[24] = system: Klebsiella pneumoniae (023); experiment: as above; conditions: 0.3 g/l
Method: as §4

`C[C@H](N)C(=O)Nc1ccc(-c2c3ccccc3[n+](C)c3ccccc23)cc1.[Cl-]` [L-Ala-4-AP-10-MA, L-alanyl-9-(4-aminophenyl)-10-methylacridinium Chloride] was tested. Which color of colonies ([1]; 24 h) did it give?
The color of colonies was “Colorless”.

What about the growth ([1]; 24 h) of the same compound?
The growth was “+/−”.

What about the color of colonies ([1]; 48 h) of the same compound?
The color of colonies was “Colorless”.

And the growth ([1]; 48 h)?
Its growth is “+/−”.

What about the color of colonies ([2]; 24 h) of the same compound?
The color of colonies was “Colorless”.

And the growth ([2]; 24 h)?
The growth was “++”.

What about the color of colonies ([2]; 48 h) of the same compound?
Its color of colonies is “Colorless”.

What about the growth ([2]; 48 h) of the same compound?
Its growth is “++”.

And the color of colonies ([3]; 24 h)?
The color of colonies was “Colorless”.

And the growth ([3]; 24 h)?
Its growth is “++”.

What about the color of colonies ([3]; 48 h) of the same compound?
Its color of colonies is “Colorless”.

What about the growth ([3]; 48 h) of the same compound?
The growth was “++”.

What about the growth ([4]; 24 h) of the same compound?
Its growth is “NG”.

What about the growth ([4]; 48 h) of the same compound?
The growth was “NG”.

What about the color of colonies ([5]; 24 h) of the same compound?
Its color of colonies is “Orange”.

And the growth ([5]; 24 h)?
The growth was “++”.

And the color of colonies ([5]; 48 h)?
Its color of colonies is “Orange”.

What about the growth ([5]; 48 h) of the same compound?
The growth was “++”.

What about the color of colonies ([6]; 24 h) of the same compound?
Its color of colonies is “Orange”.

What about the growth ([6]; 24 h) of the same compound?
The growth was “++”.

And the color of colonies ([6]; 48 h)?
The color of colonies was “Orange”.

What about the growth ([6]; 48 h) of the same compound?
The growth was “++”.

What about the color of colonies ([7]; 24 h) of the same compound?
Its color of colonies is “Colorless”.

What about the growth ([7]; 24 h) of the same compound?
Its growth is “++”.

And the color of colonies ([7]; 48 h)?
The color of colonies was “Colorless”.

And the growth ([7]; 48 h)?
Its growth is “++”.

What about the color of colonies ([8]; 24 h) of the same compound?
The color of colonies was “Orange”.

What about the growth ([8]; 24 h) of the same compound?
The growth was “++”.

And the color of colonies ([8]; 48 h)?
Its color of colonies is “Orange”.

And the growth ([8]; 48 h)?
The growth was “++”.

And the color of colonies ([9]; 24 h)?
Its color of colonies is “Orange”.

And the growth ([9]; 24 h)?
Its growth is “++”.

What about the color of colonies ([9]; 48 h) of the same compound?
The color of colonies was “Orange”.

And the growth ([9]; 48 h)?
Its growth is “++”.

What about the color of colonies ([10]; 24 h) of the same compound?
Its color of colonies is “Orange”.

And the growth ([10]; 24 h)?
Its growth is “++”.

And the color of colonies ([10]; 48 h)?
The color of colonies was “Orange”.

What about the growth ([10]; 48 h) of the same compound?
Its growth is “++”.

What about the color of colonies ([11]; 24 h) of the same compound?
The color of colonies was “Orange”.

And the growth ([11]; 24 h)?
Its growth is “++”.

And the color of colonies ([11]; 48 h)?
The color of colonies was “Orange”.

And the growth ([11]; 48 h)?
The growth was “++”.

What about the color of colonies ([12]; 24 h) of the same compound?
Its color of colonies is “Orange”.

What about the growth ([12]; 24 h) of the same compound?
The growth was “++”.

What about the color of colonies ([12]; 48 h) of the same compound?
The color of colonies was “Orange”.

What about the growth ([12]; 48 h) of the same compound?
The growth was “++”.

What about the color of colonies ([13]; 24 h) of the same compound?
The color of colonies was “Orange”.

What about the growth ([13]; 24 h) of the same compound?
Its growth is “++”.

And the color of colonies ([13]; 48 h)?
The color of colonies was “Orange”.

And the growth ([13]; 48 h)?
Its growth is “++”.

And the growth ([14]; 24 h)?
The growth was “NG”.

What about the growth ([14]; 48 h) of the same compound?
The growth was “NG”.

And the color of colonies ([15]; 24 h)?
The color of colonies was “Orange”.

And the growth ([15]; 24 h)?
Its growth is “++”.

What about the color of colonies ([15]; 48 h) of the same compound?
The color of colonies was “Orange”.

What about the growth ([15]; 48 h) of the same compound?
Its growth is “++”.

What about the Color ([16]; 24 H) of the same compound?
Its Color is “colorless”.

And the Color ([16]; 48 h)?
Its Color is “pink-orange”.

What about the Intensity ([16]; 48 h) of the same compound?
Its Intensity is “traces”.

What about the Color ([17]; 24 H) of the same compound?
Its Color is “pink-orange”.

What about the Intensity ([17]; 24 H) of the same compound?
The Intensity was 3.

And the Color ([17]; 48 h)?
The Color was “pink-orange”.

What about the Intensity ([17]; 48 h) of the same compound?
The Intensity was 3.

And the Color ([18]; 24 H)?
The Color was “pink-orange”.

And the Intensity ([18]; 24 H)?
Its Intensity is 1.

What about the Color ([18]; 48 h) of the same compound?
The Color was “pink-orange”.

And the Intensity ([18]; 48 h)?
The Intensity was 2.

What about the Color ([19]; 24 H) of the same compound?
Its Color is “colorless”.

And the Color ([19]; 48 h)?
The Color was “colorless”.

What about the Color ([20]; 24 H) of the same compound?
Its Color is “inhibited”.

What about the Color ([20]; 48 h) of the same compound?
The Color was “inhibited”.

And the Color ([21]; 24 H)?
The Color was “pink”.

What about the Intensity ([21]; 24 H) of the same compound?
Its Intensity is “traces”.

What about the Color ([21]; 48 h) of the same compound?
The Color was “pink-orange”.

And the Intensity ([21]; 48 h)?
Its Intensity is 0.5.

And the Color ([22]; 24 H)?
The Color was “pink-orange”.

And the Intensity ([22]; 24 H)?
Its Intensity is 3.5.

What about the Color ([22]; 48 h) of the same compound?
Its Color is “pink-orange”.

And the Intensity ([22]; 48 h)?
Its Intensity is 3.5.

And the Color ([23]; 24 H)?
The Color was “inhibited”.

And the Color ([23]; 48 h)?
The Color was “inhibited”.

What about the Color ([24]; 24 H) of the same compound?
The Color was “pink-orange”.

And the Intensity ([24]; 24 H)?
Its Intensity is 3.

And the Color ([24]; 48 h)?
The Color was “pink-orange”.

And the Intensity ([24]; 48 h)?
Its Intensity is 3.
